Source: paper PMC10656311, “Evaluation of the probable synergistic toxicity of selected potentiated antiretroviral and antibiotics on some aquatic biomarker organisms” (Environmental Monitoring and Assessment, 2023)
Where “and” joins values, the source holds several entries; their conditions need not be identical. Equal entries are not always repeated. Entries after “also recorded” stand apart in the source; their conditions may differ. Where two headings read alike, the source gives them in different places.

What was measured:
[1] = system: root tip meristem cells of Allium cepa; assay: Allium cepa root tip microscopic examination (chromosomal aberrations); type: cell-based; conditions: 100 µg/L; for chromosomal aberrations observed in root tip meristem: light microscopy
Description: (§1) Whole-onions test specimens were grown at room temperature (in triplicate). The onions were initially grown for 2 days in tap water. Prior to growing them in tap water, the ring of the root, the primordia at the bottom of the onion bulb, was scraped with a sterile surgical blade to remove all existing root growth. After 2 days of tap water exposure, the lengths of the root fibers of each onion were measured and recorded. This was followed by exposure to the test solutions for another 2 days (tap water was used as the control). […] At the end of the exposure, the onion roots were cut 3 cm from the tip and placed in Carnoy’s fixative solution ([…] (Merck, Germany)) until further microscopic analysis.
This was followed by washing the root tips in distilled water, after which they were stained using Feulgen stain for 2–3 min. The stained root tips were then rinsed in distilled water, transferred onto clean glass microscope slides, and counter-stained with acetocarmine. […] The squashed onion root tips were thereafter imaged using a LEICA DM-750 light microscope at × 400 and × 1000 magnifications.
Microscopic evaluation of Allium cepa cells during mitosis was conducted to ascertain the impacts the L, C, and S test samples (lone and mixtures) will have on the genetic materials of the onion roots at cellular levels.

[2] = system: Salmonella typhimurium TA100; assay: Ames mutagenicity test (agar plate method), strain TA100; conditions: for Number of revertant colonies per plate, Mean / Number of revertant colonies per plate, NR 1 / Number of revertant colonies per plate, NR 2 / Number of revertant colonies per plate, NR3 / mutagenic/cytotoxic effect (in words): TA 100; for Number of revertant colonies per plate, NR 1: plate 1; for Number of revertant colonies per plate, NR 2: plate 2; for Number of revertant colonies per plate, NR3: plate 3
Excerpt: The revertant bacteria are detected by their ability to grow in the absence of the amino acid required by the parent test strain. The Ames test method was employed to investigate the potential of a chemical to induce a mutagenic effect in exposed organisms. Three different Salmonella typhimurium bacteria strains ([TA98 P450], [TA100], and [TA100—P450], which simulate metabolic activation) were used in order to account for discrepancies in the way similar organisms (bacteria) may respond to test solutions.
Salmonella typhimurium bacteria were cultured on a freshly prepared nutrient broth medium (Merck, Germany), and allowed to stand overnight. Bacterial growth was confirmed by visual turbidity inspection. […] All experiments were carried out in triplicate. The mutagenicity of the PCs was further classified based on fuzzy logic four-gridded indices (Table 2).
A substance is deemed mutagenic if its mutation rate is twice or more than that of the background.
Salmonella typhimurium bacterial strains TA 98 P450, TA 100, or TA100 P450 were exposed to an equimolar concentration (10 and 100 µg/L) ternary cocktail mixtures of the L, C, and S in the Ames test.

[3] = system: Daphnia magna; conditions: for Mean mortality (n = 20): five daphnids per well, four replicates
[4] = system: Salmonella typhimurium TA98 P450; type: cell-based; conditions: for Number of revertant colonies per plate, NR 1: plate 1; for Number of revertant colonies per plate, NR 2: plate 2; for Number of revertant colonies per plate, NR3: plate 3
Description: (§2) Bacterial growth was confirmed by visual turbidity inspection. […] All experiments were carried out in triplicate.

[5] = system: Salmonella typhimurium TA100 P450; assay: Ames mutagenicity test (agar plate method), strain TA100 P450; type: cell-based; conditions: for mutagenic/cytotoxic effect (in words) / Number of revertant colonies per plate, Mean: TA100 P450; for Number of revertant colonies per plate, NR 1 / Number of revertant colonies per plate, NR 2 / Number of revertant colonies per plate, NR3: TA 100 P450; for Number of revertant colonies per plate, NR 1: plate 1; for Number of revertant colonies per plate, NR 2: plate 2; for Number of revertant colonies per plate, NR3: plate 3
Description: as §2

[6] = system: Allium cepa; assay: Allium cepa root length assay (phytotoxic inhibition of root growth); type: in vivo
Description: as §1
The test APCs and their mixtures in different combinations were investigated for their phytotoxic characteristics at 10 µg/L and 100 µg/L concentrations, using A. cepa bioassays. The root length assay relies on evaluating the root length of A. cepa as an indicator endpoint to assess the susceptibility of plants exposed to xenobiotics by evaluating physical impacts on their root growth. The ratio between the root length (mm) (RRL) after and before exposure to test solutions ( ^RLAERLBE ) was used as indices for the APCs’ phytotoxicity.

With Cc1cc(NS(=O)(=O)c2ccc(N)cc2)no1 [Sulfamethoxazole, sulfamethoxazole] the “chromosomal aberrations observed in root tip meristem” value (“chromosomal aberrations observed” below) [1] was “vagrant chromosome in anaphase and alignment anaphase”, the “Number of revertant colonies per plate, Mean” value (from here on “Number … per plate, Mean”) ([2]; 10 µg/L) was 123 and the “Number of revertant colonies per plate, NR 1” value (from here on “Number … per plate, NR 1”) ([2]; 10 µg/L) was 100. For the same molecule, the “Number of revertant colonies per plate, NR 2” value (from here on “Number … per plate, NR 2”) ([2]; 10 µg/L) was 150, the “Number of revertant colonies per plate, NR3” value (from here on “Number … per plate, NR3”) ([2]; 10 µg/L) was 120 and the “Number … per plate, Mean” value ([2]; 100 µg/L) was 117. For the same molecule, the “Number … per plate, NR 1” value ([2]; 100 µg/L) was 110, the “Number … per plate, NR 2” value ([2]; 100 µg/L) was 110 and the “Number … per plate, NR3” value ([2]; 100 µg/L) was 130. For the same molecule, the Mean % mortality ([3]; 10 µg/L, 24 h) was 15%, the “Mean mortality (n = 20)” value ([3]; 10 µg/L, 24 h) was 0.75 ± 0.50 and the Mean % mortality ([3]; 10 µg/L, 48 h) was 30%. The “Mean mortality (n = 20)” value ([3]; 10 µg/L, 48 h) was 1.50 ± 1.73, the Mean % mortality ([3]; 100 µg/L, 24 h) was 50% and the “Mean mortality (n = 20)” value ([3]; 100 µg/L, 24 h) was 2.50 ± 0.58. The Mean % mortality ([3]; 100 µg/L, 48 h) was 95% and the “Mean mortality (n = 20)” value ([3]; 100 µg/L, 48 h) was 4.75 ± 0.50.

For O=C(O)c1cn(C2CC2)c2cc(N3CCNCC3)c(F)cc2c1=O [Ciprofloxacin, ciprofloxacin], the “chromosomal aberrations observed” value [1] was “uncoiling chromosome/irregular prophase”, the “mutagenic/cytotoxic effect (in words)” value ([4]; 10 µg/L) was “did not exert either mutagenic or cytotoxic effects” and the “mutagenic/cytotoxic effect (in words)” value ([4]; 100 µg/L) was “to a much lesser extent mutagenic; also recorded: did not individually exert cytotoxicity; also recorded: some level of mutagenic activities”. The “Number … per plate, Mean” value ([2]; 10 µg/L) was 140, the “Number … per plate, NR 1” value ([2]; 10 µg/L) was 140 and the “Number … per plate, NR 2” value ([2]; 10 µg/L) was 170. For the same molecule, the “Number … per plate, NR3” value ([2]; 10 µg/L) was 110, the “Number … per plate, Mean” value ([2]; 100 µg/L) was 140 and the “mutagenic/cytotoxic effect (in words)” value ([2]; 100 µg/L) was “did not individually exert cytotoxicity”. For the same molecule, the “Number … per plate, NR 1” value ([2]; 100 µg/L) was 130, the “Number … per plate, NR 2” value ([2]; 100 µg/L) was 140 and the “Number … per plate, NR3” value ([2]; 100 µg/L) was 150. For the same molecule, the “mutagenic/cytotoxic effect (in words)” value ([5]; 10 µg/L) was “did not exert either mutagenic or cytotoxic effects”, the “mutagenic/cytotoxic effect (in words)” value ([5]; 100 µg/L) was “did not individually exert cytotoxicity” and the Mean % mortality ([3]; 10 µg/L, 24 h) was 10%. The “Mean mortality (n = 20)” value ([3]; 10 µg/L, 24 h) was 0.50 ± 0.58, the Mean % mortality ([3]; 10 µg/L, 48 h) was 55% and the “Mean mortality (n = 20)” value ([3]; 10 µg/L, 48 h) was 2.75 ± 0.50. The Mean % mortality ([3]; 100 µg/L, 24 h) was 50%, the “Mean mortality (n = 20)” value ([3]; 100 µg/L, 24 h) was 2.5 ± 1.73 and the Mean % mortality ([3]; 100 µg/L, 48 h) was 75%. The “Mean mortality (n = 20)” value ([3]; 100 µg/L, 48 h) was 3.75 ± 1.26.

With Nc1ccn([C@@H]2CS[C@H](CO)O2)c(=O)n1 [Lamivudine, lamivudine] the “A. cepa root exposure R.L” value ([6]; 10 µg/L) was “-”, the “A. cepa root exposure R.L” value ([6]; 100 µg/L) was “+” and the “A. cepa root exposure C.A (chromosomal aberration)” value [1] was “+”. For the same molecule, the “chromosomal aberrations observed” value [1] was “irregular prophase and metaphase”, the “Number … per plate, Mean” value ([4]; 10 µg/L) was 16 and the “mutagenic/cytotoxic effect (in words)” value ([4]; 10 µg/L) was “did not exert either mutagenic or cytotoxic effects”. For the same molecule, the “Number … per plate, NR 1” value ([4]; 10 µg/L) was 13, the “Number … per plate, NR 2” value ([4]; 10 µg/L) was 23 and the “Number … per plate, NR3” value ([4]; 10 µg/L) was 13. The “Number … per plate, Mean” value ([4]; 100 µg/L) was 18, the “mutagenic/cytotoxic effect (in words)” value ([4]; 100 µg/L) was “to a much lesser extent mutagenic; also recorded: some level of mutagenic activities” and the “Number … per plate, NR 1” value ([4]; 100 µg/L) was 20. The “Number … per plate, NR 2” value ([4]; 100 µg/L) was 15, the “Number … per plate, NR3” value ([4]; 100 µg/L) was 18 and the “Ames test (mutagenicity) TA 100” value [2] was “b (key: Toxic (a) x<0.5; No mutagenicity (b) x≥0.5≤1.5; Mutagenic to a lesser extent (c) x>1.5<2.0; Significantly mutagenic (d) x≥2.0)”. For the same molecule, the “Number … per plate, Mean” value ([2]; 10 µg/L) was 160, the “mutagenic/cytotoxic effect (in words)” value ([2]; 10 µg/L) was “did not exert either mutagenic or cytotoxic effects” and the “Number … per plate, NR 1” value ([2]; 10 µg/L) was 190. The “Number … per plate, NR 2” value ([2]; 10 µg/L) was 150, the “Number … per plate, NR3” value ([2]; 10 µg/L) was 140 and the “Number … per plate, Mean” value ([2]; 100 µg/L) was 163. For the same molecule, the “Number … per plate, NR 1” value ([2]; 100 µg/L) was 180, the “Number … per plate, NR 2” value ([2]; 100 µg/L) was 150 and the “Number … per plate, NR3” value ([2]; 100 µg/L) was 160. The “Number … per plate, Mean” value ([5]; 10 µg/L) was 233, the “mutagenic/cytotoxic effect (in words)” value ([5]; 10 µg/L) was “did not exert either mutagenic or cytotoxic effects” and the “Number … per plate, NR 1” value ([5]; 10 µg/L) was 200. For the same molecule, the “Number … per plate, NR 2” value ([5]; 10 µg/L) was 200, the “Number … per plate, NR3” value ([5]; 10 µg/L) was 300 and the “Number … per plate, Mean” value ([5]; 100 µg/L) was 300. The “Number … per plate, NR 1” value ([5]; 100 µg/L) was 210, the “Number … per plate, NR 2” value ([5]; 100 µg/L) was 310 and the “Number … per plate, NR3” value ([5]; 100 µg/L) was 380. The Mean % mortality ([3]; 10 µg/L, 24 h) was 10%, the “Mean mortality (n = 20)” value ([3]; 10 µg/L, 24 h) was 0.50 ± 0.60 and the Mean % mortality ([3]; 10 µg/L, 48 h) was 45%. The “Mean mortality (n = 20)” value ([3]; 10 µg/L, 48 h) was 2.30 ± 1.00, the Mean % mortality ([3]; 100 µg/L, 24 h) was 85% and the “Mean mortality (n = 20)” value ([3]; 100 µg/L, 24 h) was 4.30 ± 1.00. For the same molecule, the Mean % mortality ([3]; 100 µg/L, 48 h) was 100%, the “Mean mortality (n = 20)” value ([3]; 100 µg/L, 48 h) was 5.00 ± 0.00 and the “LD50 as log concentration” value ([3]; 24 h) was 1.533 log conc. (ppb). The “LD50 as log concentration” value ([3]; 48 h) was 1.091 log conc. (ppb) and 1.09 log conc. (ppb), the “Toxic unit 24 hrs” value ([3]; toxic unit of the constituent in the LCS mixture, 24 h) was 1.12 and the “Toxic unit 48 hrs” value ([3]; toxic unit of the constituent in the LCS mixture, 48 h) was 1.93.
